In patent US11661397B2, “1,4-disubstituted imidazole derivative” (Sumitomo Pharma Co., Ltd., priority 2015, dated 2023) one finds IC50 data, which are given here for 29 molecules.

Experiment [1] has as its system HCT-116 cells. Briefly: Test for inhibiting sphere-forming ability of cancer cells in the presence of BSA (Test Example 2). Conditions: Homo sapiens, 96 h; HCT-116 spheres, 5% bovine serum albumin (BSA), 4 days, CellTiter-Glo; read-out: Sphere IC50 value (concentration for 50% inhibition of cell proliferation). The class given is cell-based. As for the experimental part:
(§1) HCT-116 cells were available from the American Type Culture Collection (ATCC). HCT-116 cells were cultured at 37° C. and 5% CO2 using the McCoy's 5a medium containing 10% fetal bovine serum (FBS) and 1% penicillin/streptomycin. […] The test compounds were added into each well to adjust the final concentration of DMSO to 0.1%, and the cells were cultured for 4 days.

The test system of experiment [2] is HCT-116 cells. Briefly: Inhibition of sphere-forming ability of cancer cells (Test Example 1). Conditions: Homo sapiens, 96 h; HCT-116 spheres, non-adherent, serum-free, 4 days, CellTiter-Glo; read-out: Sphere IC50 value (concentration for 50% inhibition of cell proliferation). The experiment is classed as cell-based. As for the experimental part:
as §1
(In general: Cellular ATP, detected with luciferase, serves as a proxy for viable cell number.)

As for `O=C(Nc1ccc(CO)nc1)c1cn(Cc2cc(F)c(F)c(F)c2)cn1` [Example 22, N-[6-(Hydroxymethyl)pyridin-3-yl]-1-(3,4,5-trifluorobenzyl)-1H-imidazole-4-carboxamide], the IC50 in the experiment with HCT-116 cells [1] and with HCT-116 cells [2] was less than 10 nM throughout.
Take `O=C(Nc1cn(Cc2cccc(C(F)(F)F)c2)cn1)c1coc(CO)n1` [Example 37]: the results for the IC50 in the experiment with HCT-116 cells [1] and with HCT-116 cells [2] were 451 nM and 238 nM, respectively.
On the same counts, the results for `COc1cc(Cn2cnc(NC(=O)c3cnc(CO)c(C(F)F)c3)c2)cc(C(F)(F)F)c1` [Example 65, 5-(difluoromethyl)-6-(hydroxymethyl)-N-{1-[3-methoxy-5-(trifluoromethyl)benzyl]-1H-imidazol-4-yl}nicotinamide] are 660 nM and 630 nM.
The matching figures for `O=C(Nc1cn(Cc2cc(F)cc(Br)c2)cn1)c1cnc(CO)c(C(F)F)c1` [Example 76, N-[1-(3-bromo-5-fluorobenzyl)-1H-imidazol-4-yl]-5-(difluoromethyl)-6-(hydroxymethyl)nicotinamide]: 60 nM and 50 nM.
As for `O=C(Nc1cn(Cc2cc(F)c(F)c(F)c2)cn1)c1ccc(CO)nc1` [Example 10, 6-(Hydroxymethyl)-N-[1-(3,4,5-trifluorobenzyl)-1H-imidazol-4-yl]nicotinamide], the IC50 with HCT-116 cells [1] and in the experiment with HCT-116 cells [2] was 7 nM each time.
On to `O=C(Nc1cn(Cc2cccc(Br)c2)cn1)c1cnc(CO)c(C(F)F)c1` [Example 58, N-[1-(3-bromobenzyl)-1H-imidazol-4-yl]-5-(difluoromethyl)-6-(hydroxymethyl)nicotinamide], for which the IC50 came to 80 nM in the experiment on HCT-116 cells [1] and 70 nM in the experiment with HCT-116 cells [2].
On the same counts, the results for `O=C(Nc1cn(Cc2cccc(C(F)(F)F)c2)cn1)c1cnc(C(O)CO)c(Cl)c1` (stereo not shown) [Example 28] are 4580 nM and 847 nM.
For the molecule `O=C(Nc1cn(Cc2ccc(F)c(Br)c2)cn1)c1cnc(CO)c(C(F)F)c1` [Example 62, N-[1-(3-bromo-4-fluorobenzyl)-1H-imidazol-4-yl]-5-(difluoromethyl)-6-(hydroxymethyl)nicotinamide], the results for the IC50 in the experiment on HCT-116 cells [1] and in the experiment on HCT-116 cells [2] were 50 nM and less than 10 nM, respectively.
The matching figures for `O=C(Nc1cn(Cc2cc(F)c(F)c(F)c2)cn1)c1csc(CO)n1` [Example 8]: 578 nM and 77 nM.
On the same counts, the results for `O=C(Nc1cn(Cc2cccc(C(F)(F)F)c2)cn1)c1cnc(CO)c(C(F)(F)F)c1` [Example 19, 6-(hydroxymethyl)-5-(trifluoromethyl)-N-{1-[3-(trifluoromethyl)benzyl]-1H-imidazol-4-yl}nicotinamide] are 403 nM and 70 nM.
The matching figures for `O=C(Nc1cn(Cc2cccc(C(F)(F)F)c2)cn1)c1cnc(CO)c(Cl)c1` [Example 31]: less than 10 nM and less than 10 nM.
Regarding `CC(O)c1ccc(C(=O)Nc2cn(Cc3cccc(C(F)(F)F)c3)cn2)cn1` (stereo not shown) [Example 6, 6-(1-Hydroxyethyl)-N-{1-[3-(trifluoromethyl)benzyl]-1H-imidazol-4-yl}nicotinamide], the values for the IC50 in the experiment on HCT-116 cells [1] and with HCT-116 cells [2] were 6970 nM and 3650 nM, respectively.
`O=C(Nc1cn(Cc2cc(Cl)cc(Cl)c2)cn1)c1cnc(CO)c(C(F)F)c1` [Example 75, N-[1-(3,5-dichlorobenzyl)-1H-imidazol-4-yl]-5-(difluoromethyl)-6-(hydroxymethyl)nicotinamide]: the IC50 in the experiment with HCT-116 cells [1] is 50 nM; in the experiment on HCT-116 cells [2] it was less than 10 nM.
Take `CCc1cc(C(=O)Nc2cn(Cc3cccc(C(F)(F)F)c3)cn2)cnc1CO` [Example 44, 5-Ethyl-6-(hydroxymethyl)-N-{1-[3-(trifluoromethyl)benzyl]-1H-imidazol-4-yl}nicotinamide]: the IC50 worked out at 5110 nM in the experiment on HCT-116 cells [1] and 758 nM with HCT-116 cells [2].
Turning to `O=C(Nc1cn(Cc2cccc(C(F)(F)F)c2)cn1)c1csc(CO)n1` [Example 7], the figures for the IC50 in the experiment on HCT-116 cells [1] and in the experiment with HCT-116 cells [2] were 520 nM and 24 nM, respectively.
On the same counts, the results for `O=C(Nc1cn(Cc2cccc(C(F)(F)F)c2)cn1)c1cnc(C(O)CO)c(Br)c1` (stereo not shown) [Example 29] are 3500 nM and 633 nM.
Consider `O=C(Nc1cn(Cc2cccc(C(F)(F)F)c2)cn1)c1cnc(CO)c(F)c1` [Example 30, 5-Fluoro-6-(hydroxymethyl)-N-{1-[3-(trifluoromethyl)benzyl]-1H-imidazol-4-yl}nicotinamide], for which the IC50 came to 563 nM in the experiment on HCT-116 cells [1] and 69 nM with HCT-116 cells [2].
The matching figures for `O=C(Nc1cn(Cc2ccc(F)c(C(F)(F)F)c2)cn1)c1cnc(CO)c(C(F)F)c1` [Example 57, 5-(difluoromethyl)-N-{1-[4-fluoro-3-(trifluoromethyl)benzyl]-1H-imidazol-4-yl}-6-(hydroxymethyl)nicotinamide]: 50 nM and less than 10 nM.
The matching figures for `O=C(/C=C/c1ccc(CO)nc1)Nc1cn(Cc2cccc(C(F)(F)F)c2)cn1` [Example 51]: 630 nM and 70 nM.
On the same counts, the results for `O=C(Nc1cn(Cc2ccc(F)c(Cl)c2)cn1)c1cnc(CO)c(C(F)F)c1` [Example 61, N-[1-(3-chloro-4-fluorobenzyl)-1H-imidazol-4-yl]-5-(difluoromethyl)-6-(hydroxymethyl)nicotinamide] are 30 nM and less than 10 nM.
On to `C=C(CO)c1ccc(C(=O)Nc2cn(Cc3cccc(C(F)(F)F)c3)cn2)cn1` [Example 15], for which the IC50 stood at 5770 nM in the experiment with HCT-116 cells [1] and 710 nM with HCT-116 cells [2].
`O=C(Nc1cn(Cc2ccc(Cl)c(Cl)c2)cn1)c1cnc(CO)c(C(F)F)c1` [Example 71, N-[1-(3,4-dichlorobenzyl)-1H-imidazol-4-yl]-5-(difluoromethyl)-6-(hydroxymethyl)nicotinamide]: the IC50 in the experiment with HCT-116 cells [1] was 60 nM; with HCT-116 cells [2], less than 10 nM.
In the case of `O=C(Nc1cn(Cc2cc(F)c(F)c(F)c2)cn1)c1cnc(CO)c(Br)c1` [Example 38], the IC50 with HCT-116 cells [1] came to 81 nM; in the experiment on HCT-116 cells [2], 61 nM.
As to `O=C(Nc1ccc2nc(CO)ccc2c1)c1cn(Cc2cc(F)c(F)c(F)c2)cn1` [Example 23, N-[2-(hydroxymethyl)quinolin-6-yl]-1-(3,4,5-trifluorobenzyl)-1H-imidazole-4-carboxamide], the IC50 with HCT-116 cells [1] worked out at 84 nM; in the experiment with HCT-116 cells [2] it was 79 nM.
Regarding `O=C(/C=C/c1cnc(CO)c(Cl)c1)Nc1cn(Cc2cccc(C(F)(F)F)c2)cn1` [Example 52], the IC50 with HCT-116 cells [1] turned out to be 410 nM; with HCT-116 cells [2] it was 50 nM.
In the case of `[2H]C([2H])(O)c1ccc(C(=O)Nc2cn(Cc3cccc(C(F)(F)F)c3)cn2)cn1` [Example 4, 6-[Hydroxy (^2H2)methyl]-N-{1-[3-(trifluoromethyl)benzyl]-1H-imidazol-4-yl}nicotinamide], the IC50 with HCT-116 cells [1] was 61 nM; with HCT-116 cells [2], less than 10 nM.
For the molecule `O=C(Nc1nc(CO)cs1)c1cn(Cc2cc(F)c(F)c(F)c2)cn1` [Example 3], the IC50 in the experiment with HCT-116 cells [1] was 51 nM; with HCT-116 cells [2], less than 10 nM.
The matching figures for `O=C(Nc1cn(Cc2ccc(Cl)c(F)c2)cn1)c1cnc(CO)c(C(F)F)c1` [Example 66, N-[1-(4-chloro-3-fluorobenzyl)-1H-imidazol-4-yl]-5-(difluoromethyl)-6-(hydroxymethyl)nicotinamide]: 60 nM and 70 nM.
On the same counts, the results for `CCOCc1ccc(C(=O)Nc2cn(Cc3cc(F)c(F)c(F)c3)cn2)cn1` [Example 16] are 1450 nM and 892 nM.
